Earlier results as cited in patent US11325978B2, “Compositions and methods for treating beta-globinopathies” (priority 2018, dated 2022).

Tested on: RIOK3
Conditions: collection of 72 inhibitors against 456 human kinases (Davis et al. 2011)

COc1cc(Nc2c(C#N)cnc3cc(OCCCN4CCN(C)CC4)c(OC)cc23)c(Cl)cc1Cl [bosutinib, Bosutinib]
inhibition of RIOK3 kinase activity: inhibit RIOK3 kinase activity
